According to patent US4921850A, “3-propenylcephem derivative” (Eisai Co., Ltd., priority 1986, dated 1990):
In brackets after ≈: the same amount, converted by molar mass. Like-named read-outs stand apart in the source and are kept apart here.

Key:
[1] = test system: Xantomonas maltophilia E 04004; test: Comparison test of anti-bacterial activity (MIC); type: cell-based; conditions: 18 h, comparison R1 = CH2F vs CH3
Protocol: (§1) MIC (μg/ml) were determined by an agar dilution method [Chemotherapy (Japan), 29, 76-79, 1981]. Overnight cultures of the bacterial strains in Mueller-Hinton broth were diluted to final concentration of about 10^6 CFU/ml, and 5 μl of each bacterial suspension was spotted onto Mueller-Hinton agar plates that contained twofold serial dilutions of antibiotics. MICs were measured after incubation for 18 hours at 37° C.
(§2) Comparison tests of the anti-bacterial activities were conducted between the compounds of the following formula according to the present invention and the corresponding control compounds wherein R1 represents methyl group. Measurements of MIC are the same as described in the above item 2.

Staph. aureus E 31106 = test: Comparison test of anti-bacterial activity (MIC); type: cell-based; conditions: Staphylococcus aureus, E31106, 18 h, comparison R1 = CH2F vs CH3
Protocol: as §1, §2

[2] = test system: Enterobacter cloacae E-74; test: Comparison test of anti-bacterial activity (MIC); type: cell-based; conditions: E74, 18 h, comparison R1 = CH2F vs CH3
Protocol: as §1, §2

Proteus vulgaris E 08042 = test: Comparison test of anti-bacterial activity (MIC); type: cell-based; conditions: E08042, 18 h, comparison R1 = CH2F vs CH3
Protocol: as §1, §2

Kleb. pneumoniae EK-6 = test: Anti-bacterial activity (MIC), agar dilution; type: cell-based; conditions: Klebsiella pneumoniae, EK6, 18 h
How it was run: (§3)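 MIC values (μg/ml) come from agar dilution: strains grown overnight in Mueller-Hinton broth, diluted to roughly 10^6 CFU/ml, spotted on Mueller-Hinton agar containing twofold serial antibiotic dilutions, and read after 18 hours at 37° C.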

[3] = test system: Morganella morganii EP-14; test: Anti-bacterial activity (MIC), agar dilution; type: cell-based; conditions: Morganella morganii, EP14, 18 h, about 10^6 CFU/ml, 37° C., read-out: MIC
How it was run: as §3

Ser. marcescens ES-75 = test: Anti-bacterial activity (MIC), agar dilution; type: cell-based; conditions: Serratia marcescens, ES75, 18 h, Ser. marcescens ES-75; agar dilution, about 10^6 CFU/ml, 18 hours, 37° C.; read-out: MIC
How it was run: as §3

Pseud. aeruginosa EP-01 = test: Anti-bacterial activity (MIC), agar dilution; type: cell-based; conditions: Pseudomonas aeruginosa, EP01, 18 h, Pseud. aeruginosa EP-01; agar dilution, about 10^6 CFU/ml, 18 hours, 37° C.; read-out: MIC
How it was run: as §3

Staph. aureus 209-P = test: Anti-bacterial activity (MIC), agar dilution; type: cell-based; conditions: Staphylococcus aureus, 209P, 18 h, Staph. aureus 209-P; agar dilution, about 10^6 CFU/ml, 18 hours, 37° C.; read-out: MIC
How it was run: as §3

Escher. coli NIHJ = test: Anti-bacterial activity (MIC), agar dilution; type: cell-based; conditions: Escherichia coli, 18 h, Escher. coli NIHJ; agar dilution, about 10^6 CFU/ml, 18 hours, 37° C.; read-out: MIC
How it was run: as §3

in vivo = conditions: read-out: values of acute toxicity
From the text: (1) Acute toxicity in mouse:
The compounds according to this invention dissolved in a physiological saline solution were intravenously dosed to five ICR male 6 weeks-old mouse.

[4] = Kleb. pneumoniae EK-6, agar dilution, about 10^6 CFU/ml, 18 hours, 37° C., read-out: MIC
[5] = intravenous, physiological saline solution, five ICR male 6 weeks-old mouse

Row | Structure (SMILES) | MIC [1] [µg/mL] | MIC (Staph. aureus E 31106) [µg/mL] | MIC [2] [µg/mL] | MIC (Proteus vulgaris E 08042) [µg/mL] | MIC (Kleb. pneumoniae EK-6; [4]) [µg/mL] | MIC [3] [µg/mL] | MIC (Ser. marcescens ES-75) [µg/mL] | MIC (Pseud. aeruginosa EP-01) [µg/mL] | MIC (Staph. aureus 209-P) [µg/mL] | MIC (Escher. coli NIHJ) [µg/mL] | LD50 (in vivo; [5]) [mg/kg] | MIC (Kleb. pneumoniae EK-6) [µg/mL] | LD50 (in vivo; mouse, iv) [mg/kg]
1 | CO/N=C(\C(=O)N[C@@H]1C(=O)N2C(C(=O)[O-])=C(/C=C/C[n+]3ccc(C(=O)O)cc3)CS[C@H]12)c1nsc(N)n1 [CH3 (Control) to Example 125, reference compound] | 50 (≈ 91.6 µM) | 12.5 (≈ 22.9 µM) | 3.13 (≈ 5.74 µM) | 12.5 (≈ 22.9 µM) | – | – | – | – | – | – | – | – | –
2 | CO/N=C(\C(=O)N[C@@H]1C(=O)N2C(C(=O)[O-])=C(/C=C/C[N+]3(C)CCCC3)CS[C@H]12)c1nsc(N)n1 [CH3 (Control) to Example 126, reference compound] | 100 (≈ 197 µM) | – | 0.1 (≈ 0.197 µM) | 1.56 (≈ 3.07 µM) | – | – | – | – | – | – | – | – | –
3 | CO/N=C(\C(=O)N[C@@H]1C(=O)N2C(C(=O)[O-])=C(/C=C/C[n+]3ccc(C(N)=O)cc3)CS[C@H]12)c1nsc(N)n1 [CH3 (Control) to Example 127, reference compound] | 50 (≈ 91.8 µM) | 6.25 (≈ 11.5 µM) | 0.4 (≈ 0.735 µM) | 3.13 (≈ 5.75 µM) | – | – | – | – | – | – | – | – | –
4 | CO/N=C(\C(=O)N[C@@H]1C(=O)N2C(C(=O)[O-])=C(/C=C/C[N+](C)(C)C)CS[C@H]12)c1nsc(N)n1 [CH3 (Control) to Example 128, reference compound] | > 100 | 6.25 (≈ 13 µM) | 0.2 (≈ 0.415 µM) | 6.25 (≈ 13 µM) | – | – | – | – | – | – | – | – | –
5 | NC(=O)C[N+]1(C/C=C/C2=C(C(=O)[O-])N3C(=O)[C@@H](NC(=O)/C(=N\OCF)c4nsc(N)n4)[C@H]3SC2)CCC(O)CC1 (stereo partly drawn) [Example 11, 7β-[2-(5-Amino-1,2,4-thiadiazol-3-yl)-(Z)-2-fluoromethoxyiminoacetamido]-3-[(E)-3-(1-carbamoylmethyl-4-hydroxy-1-piperidinio)-1-propen-1-yl]-3-cephem-4-carboxylate] | – | – | – | – | ≤ 0.025 | ≤ 0.025 | ≤ 0.025 | 0.8 (≈ 1.34 µM) | 0.4 (≈ 0.668 µM) | ≤ 0.025 | > 2000 | – | –
6 | CC12C[N+](C/C=C/C3=C(C(=O)[O-])N4C(=O)[C@@H](NC(=O)/C(=N\OCF)c5nsc(N)n5)[C@H]4SC3)(CCO1)CCO2 [Example 12, 7β-[2-(5-Amino-1,2,4-thiadiazol-3-yl)-(Z)-2-fluoromethoxyiminoacetamido]-3-[(E)-3-(5-aza-1-methyl-2,8-dioxabicyclo[3.3.1]nona-5-io)-1-propen-1-yl]-3-cephem-4-carboxylate] | – | – | – | – | – | 0.05 (≈ 0.0857 µM) | 0.1 (≈ 0.171 µM) | 1.56 (≈ 2.67 µM) | 0.4 (≈ 0.685 µM) | 0.05 (≈ 0.0857 µM) | > 2000 | ≤ 0.025 | –
7 | CC[N+](CC)(C/C=C/C1=C(C(=O)[O-])N2C(=O)[C@@H](NC(=O)/C(=N\OCF)c3nsc(N)n3)[C@H]2SC1)CC(N)=O [Example 96] | – | – | – | – | ≤ 0.025 | ≤ 0.025 | ≤ 0.025 | 0.8 (≈ 1.4 µM) | 0.2 (≈ 0.35 µM) | ≤ 0.025 | > 2000 | – | –
8 | C[N+]1(C/C=C/C2=C(C(=O)[O-])N3C(=O)[C@@H](NC(=O)/C(=N\OCF)c4nsc(N)n4)[C@H]3SC2)CCN(C(N)=O)CC1 [Example 121, 7β-[2-(5-Amino-1,2,4-thiadiazol-3-yl)-(Z)-2-fluoromethoxyiminoacetamido]-3-[(E)-3-(1-methyl-4-carbamoyl-1-piperazinio)-1-propen-1-yl]-3-cephem-4-carboxylate] | – | – | – | – | ≤ 0.025 | ≤ 0.025 | 0.1 (≈ 0.171 µM) | 0.8 (≈ 1.37 µM) | 0.2 (≈ 0.343 µM) | ≤ 0.025 | > 2000 | – | –
9 | Nc1nc(/C(=N/OCF)C(=O)N[C@@H]2C(=O)N3C(C(=O)[O-])=C(/C=C/C[n+]4ccc(C(=O)O)cc4)CS[C@H]23)ns1 [Example 125, 7β-[2-(5-Amino-1,2,4-thiadiazol-3-yl)-(Z)-2-fluoromethoxyiminoacetamido]-3-[(E)-3-(4-carboxypyridinio)-1-propen-1-yl]-3-cephem-4-carboxylate] | 25 (≈ 44.4 µM) | 6.25 (≈ 11.1 µM) | 0.4 (≈ 0.71 µM) | 0.2 (≈ 0.355 µM) | ≤ 0.025 | ≤ 0.025 | ≤ 0.025 | 1.56 (≈ 2.77 µM) | 0.4 (≈ 0.71 µM) | ≤ 0.025 | – | – | –
10 | C[N+](C)(C/C=C/C1=C(C(=O)[O-])N2C(=O)[C@@H](NC(=O)/C(=N\OCC#N)c3nsc(N)n3)[C@H]2SC1)[C@@H](CO)C(N)=O [Example 145, 7β-[2-(5-Amino-1,2,4-thiadiazol-3-yl)-(Z)-2-cyanomethoxyiminoacetamido]-3-[(E)-3-[(1S-carbamoyl-2-hydroxyethyl)dimethylammonio]-1-propen-1-yl]-3-cephem-4-carboxylate] | – | – | – | – | 0.1 (≈ 0.173 µM) | 0.1 (≈ 0.173 µM) | 0.1 (≈ 0.173 µM) | 1.56 (≈ 2.69 µM) | 0.4 (≈ 0.69 µM) | 0.2 (≈ 0.345 µM) | > 2000 | – | –
11 | C[N@@+]1(C/C=C/C2=C(C(=O)[O-])N3C(=O)[C@@H](NC(=O)/C(=N\OCC#N)c4nsc(N)n4)[C@H]3SC2)C[C@H](O)C[C@@H]1CO [Example 146, 7β-[2-(5-Amino-1,2,4-thiadiazol-3-yl)-(Z)-2-cyanomethoxyiminoacetamido]-3-[(E)-3-(1-methyl-2R-hydroxymethyl-4R-hydroxy-1-pyrrolidinio)-1-propen-1-yl]-3-cephem-4-carboxylate] | – | – | – | – | 0.05 (≈ 0.0864 µM) | 0.05 (≈ 0.0864 µM) | 0.05 (≈ 0.0864 µM) | 1.56 (≈ 2.7 µM) | 0.4 (≈ 0.691 µM) | 0.1 (≈ 0.173 µM) | – | – | > 2000
12 | CC(=O)C[N+](C)(C)C/C=C/C1=C(C(=O)[O-])N2C(=O)[C@@H](NC(=O)/C(=N\OCC#N)c3nsc(N)n3)[C@H]2SC1 [Example 154] | – | – | – | – | 0.1 (≈ 0.182 µM) | 0.1 (≈ 0.182 µM) | 0.1 (≈ 0.182 µM) | 0.8 (≈ 1.46 µM) | 0.4 (≈ 0.729 µM) | 0.1 (≈ 0.182 µM) | > 2000 | – | –
13 | C[N+](C)(C/C=C/C1=C(C(=O)[O-])N2C(=O)[C@@H](NC(=O)/C(=N\OCC#N)c3nsc(N)n3)[C@H]2SC1)CC(N)=O [Example 155] | – | – | – | – | 0.05 (≈ 0.091 µM) | 0.1 (≈ 0.182 µM) | 0.2 (≈ 0.364 µM) | 1.56 (≈ 2.84 µM) | 0.4 (≈ 0.728 µM) | 0.1 (≈ 0.182 µM) | > 2000 | – | –
